Data taken from PMC3108859 (Toxicology and applied pharmacology, 2009).
Entries after “also recorded” stand apart in the source; their conditions may differ.

Key:
[1] = system: primary human hepatocytes; assay: Quantitative sub-lethal hepatotoxicity imaging assays; format: cell-based; details: absence of cytokines, 24 or 48 hours
[2] = system: primary human hepatocytes; format: cell-based; details: no cytokines, 24 hr, doses less than each drug's own 100*Cmax
[3] = system: rat hepatocyte-Kupffer cell co-culture; details: ref Tukov et al., 2006; cited from earlier work
[4] = system: primary human hepatocytes; format: cell-based; details: 24 hours post-treatment

| Compound | drug-induced sub-lethal hepatocyte injuries (lipid content, ROS, MtMP, GSH depletion) [1] | cytokine synergy effects by factorial analysis of caspase 3/7 activity [4] | further results |
| --- | --- | --- | --- |
| CCc1nn(CCCN2CCN(c3cccc(Cl)c3)CC2)c(=O)n1CCOc1ccccc1 [nefazodone] | numerous sub-lethal hepatotoxicities |  |  |
| CC[C@H]1OC(=O)[C@H](C)[C@@H](O[C@H]2C[C@@](C)(OC)[C@@H](O)[C@H](C)O2)[C@H](C)[C@@H](O[C@@H]2O[C@H](C)C[C@H](N(C)C)[C@H]2O)[C@](C)(OC)C[C@@H](C)C(=O)[C@H](C)[C@@H](O)[C@]1(C)O [clarithromycin] | numerous sub-lethal hepatotoxicities |  |  |
| C=C[C@H]1C[N@@]2CC[C@H]1C[C@H]2[C@H](O)c1ccnc2ccc(OC)cc12 [quinine] |  |  | drug-only hepatotoxicity (greater than two-fold increase in LDH release) [2]: induced significant drug-only hepatotoxicity |
| CN(C)CCCN1c2ccccc2Sc2ccc(Cl)cc21 [chlorpromazine] |  |  | synergistic induction of hepatocellular death following LPS treatment [3]: synergistic induction of hepatocellular death following LPS treatment |
| N[C@@H]1[C@H]2CN(c3nc4c(cc3F)c(=O)c(C(=O)O)cn4-c3ccc(F)cc3F)C[C@@H]12 [trovafloxacin] | only sub-lethal injury induced by both telithromycin and trovafloxacin that was statistically significant was MtMP depletion; also recorded: induced only one type of sub-lethal injury, mitochondrial membrane potential depletion | evident, in decreasing magnitude, for LPS and IL-1α but not other treatment variables |  |
| CC[C@H]1OC(=O)[C@H](C)C(=O)[C@H](C)[C@@H](O[C@@H]2O[C@H](C)C[C@H](N(C)C)[C@H]2O)[C@](C)(OC)C[C@@H](C)C(=O)[C@H](C)[C@H]2N(CCCCn3cnc(-c4cccnc4)c3)C(=O)O[C@]12C [telithromycin] | only sub-lethal injury induced by both telithromycin and trovafloxacin that was statistically significant was MtMP depletion; also recorded: induced only one type of sub-lethal injury, mitochondrial membrane potential depletion | evident, in decreasing magnitude, for LPS and IL-1α but not other treatment variables |  |
